# From US9394338B2, “Glutathione analogs and uses thereof” (REGENTS OF THE UNIVERSITY OF MINNESOTA, priority 2011, dated 2016)
# Where two headings read alike, the source gives them in different places.
# What was measured:
# yeast glyoxalase I = target: T1, yeast glyoxalase I (Saccharomyces cerevisiae, UniProt P50107); assay: Glyoxalase I enzyme kinetics assay; assay type: biochemical; conditions: yeast Glx-I, MG, 30° C., phosphate buffer pH 6.6
# T1 construct: purchased Sigma
# T1 sequence (P50107 1-326): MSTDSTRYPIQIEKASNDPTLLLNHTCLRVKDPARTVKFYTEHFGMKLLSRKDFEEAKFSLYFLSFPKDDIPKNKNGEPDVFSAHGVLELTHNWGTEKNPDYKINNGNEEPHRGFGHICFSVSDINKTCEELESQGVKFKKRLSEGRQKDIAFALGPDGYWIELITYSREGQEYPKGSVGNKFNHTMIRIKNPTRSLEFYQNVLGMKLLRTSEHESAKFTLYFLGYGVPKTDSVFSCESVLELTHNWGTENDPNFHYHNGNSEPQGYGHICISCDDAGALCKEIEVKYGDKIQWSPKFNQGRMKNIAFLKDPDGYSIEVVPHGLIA
# Method: Glyoxalase I Enzyme Kinetics Assay. The glutathione analog, Ψ-GSH and asparthione were examined for their ability to act as substrates for the yeast glyoxalase I mediated […] of MG. The commercial 40% methylglyoxal solution was distilled to remove polymerization products. Enzyme assays were performed (30° C., 0.05 M phosphate buffer (pH 6.6)) using a thermostated Beckman DU® 7400 spectrophotometer. Fresh solutions of GSH, Ψ-GSH and asparthione were prepared on the day of the assays with distilled, deionized water. In each assay, the cell contained a total volume of 3.0 mL which was no more than 6.0 mM with respect to methylglyoxal and 1.3 mM with respect to GSH or its analogs. […] Data were analyzed utilizing an Enzyme kinetics module of Sigmaplot 9.0 from Systat Software Inc.
# SH-SY-5Y cells [1] = assay: Determination of intracellular MG concentration after glucose treatment; assay type: cell-based, human; conditions: 50 mM glucose three days, compound 500 μM
# Method: Determination of Intracellular MG Concentration. SHSY5Y cells were seeded in a T150 flask and allowed to grow for 24 h. The next day, cells were treated with glucose (50 mM) in the presence and the absence of GSH or Ψ-GSH (500 μM). Cells without glucose treatment were used as a control. After 3 days of treatment, the cell pellet was collected and sonicated in 1 mL of PBS buffer to obtain cell lysates, which were derivatized as follows: 1 mL of cell lysate+0.2 mL 5 M HClO4+0.2 mL 10 mM 1,2 diaminobenzene+0.1 mL 1 μM 5-methylquinoxaline (internal std.)+0.5 mL water to 2 mL final volume. Samples were incubated at room temperature overnight and then centrifuged. The supernatant was passed through a C-18 SPE cartridge which had been prepared by flushing 2-4 mL of acetonitrile followed by 2-4 mL of 10 mM KH2PO4 (pH 2.4). After evaporation of the acetonitrile layer, the solid obtained was redissolved in 0.2 mL of 20% acetonitrile in 10 mM KH2PO4 (pH=2.4). The concentration of MG derivative, 2-methylquinoxaline, was measured using a Beckman Coulter Gold chromatography system. The column was Varian Microsorb-MV 300-5 25 cm C18 column (4.6 mm internal diameter and 5 μm particle diameter). The mobile phase was 80 vol % of 10 mM KH2PO4 and 20 vol % of HPLC grade acetonitrile. […]
# [2] = test system: equine kidney γ-glutamyltranspeptidase; assay: γ-Glutamyltranspeptidase assay (stability to γ-GT mediated degradation); assay type: in vitro ADME
# Method: γ-Glutamyltranspeptidase Assay. […] The plates were developed alongside authentic predicted degradation products with the solvent system: 4:1.5:2; Butanol/Acetic acid/Water. Visual detection of TLC spots was performed under UV and also by iodine and fluorescamine staining solution.
# SH-SY-5Y cells [3] = assay: cells; assay type: cell-based; conditions: for protection against Aβ toxicity: 10 μM, pretreatment 24 h; for protection against Aβ toxicity / length of cytoprotection against Aβ toxicity: 20 μM Aβ (1-42); for inhibition at 1000 µM: Homo sapiens, SH-SY5Y, SH-SY-5Y, compound 1 mM 24 h; for length of cytoprotection against Aβ toxicity: pretreatment of SH-SY-5Y cells
# Method: (§1) Cytotoxicity Studies: Protection against β-amyloid 1-42 cytotoxicity in SH-SY-5Y cells was measured by standard MTT assays. SH-SY-5Y cells were seeded in 96-well plates at the density of 30,000 cells/well. After overnight incubation, the cells were exposed to GSH or Ψ-GSH at a concentration of 1 mM for 24 h at 37° C. After 24 h of incubation, the drug-containing medium was replaced with media containing 20 μM β-amyloid 1-42 peptide and the incubation was allowed to continue for additional 24 hours after the addition of the drugs. At the end of the incubation, 20 μL of MTT stock solution (5 mg/mL) was added to each well and incubated for 3 h at 37° C. The MTT reaction medium was discarded and the purple-blue MTT formazan crystals were dissolved by the addition of 100 μL of 0.1 N HCl in isopropanol. The optical density (OD), a reflection mitochondrial function of the viable cells, was read directly with a microplate reader (BioTek SynergyHT, VT, USA) at 580 nm and a reference wavelength of 680 nm. Concentration response graphs were generated for each drug using GraphPad Prism software (GraphPad Software, Inc., San Diego, Calif., USA). Results are expressed as mean percent inhibition of β-amyloid toxicity with the standard error of the mean. In another set of experiments, cells were preincubated with a glyoxalase I inhibitor, S-(p-bromobenzylglutathione) (1 mM) for 24 hours before addition of βamyloid1-42 peptide (20 μM).
# as §1, with “Protection” for “Cytotoxicity Studies: Protection”, “against β-amyloid^1-42” for “against β-amyloid 1-42”, “cells/well. […]” for “cells/well. After overnight incubation, the cells were exposed to GSH or Ψ-GSH at a concentration of 1 mM for 24 h at 37° C.”, “μM β-amyloid^1-42” for “μM β-amyloid 1-42”, “20 μl,” for “20 μL”, “mean.” for “mean. In another set of experiments, cells were preincubated with a glyoxalase I inhibitor, S-(p-bromobenzylglutathione) (1 mM) for 24 hours before addition of βamyloid1-42 peptide (20 μM).”
# SH-SY-5Y cells [4] = assay: Protection against H2O2 cytotoxicity, MTT assay; assay type: cell-based, human; conditions: preincubation 24 h, H2O2 50 μM 30 min
# Method: Similar procedures were used for determining the protective effect of GSH and its analog against H2O2 cytotoxicity. After preincubation of cells with GSH or Ψ-GSH for 24 hours, cells were exposed to H2O2 (50 μM) for 30 min and the media was replaced with fresh media. Cells were incubated for an additional 24 h after which the cell viability was the determined by the MTT assay as described earlier.
# [5] = then 20 μM Aβ1-42 24 h, read-out: % Inhibition of Cell Growth with Aβ1-42
# [6] = without Aβ1-42, read-out: % Inhibition of Cell Growth without Aβ1-42
Compound,slope for initial velocity vs. substrate concentration (yeast glyoxalase I),glucose-induced intracellular MG accumulation (SH-SY-5Y cells [1]),time to complete degradation by γ-GT ([2]; incubation with γ-GT) [min],protection against Aβ toxicity (SH-SY-5Y cells [3]),inhibition at 1000 µM (SH-SY-5Y cells [3]; [5]) [%],inhibition at 1000 µM (SH-SY-5Y cells [3]; [6]) [%],length of cytoprotection against Aβ toxicity (SH-SY-5Y cells [3]),protection against peroxide cytotoxicity (SH-SY-5Y cells [4]),degradation during incubation with γ-GT ([2]; incubation with γ-GT for up to 24 h)
"N[C@@H](CCC(=O)N[C@@H](CS)C(=O)NCC(=O)O)C(=O)O [GSH, Glutathione]",0.1954±0.0216,prevented glucose-induced intracellular MG accumulation,≤ 30,fully protected the cells,12,0,significant only until day 3,dose-dependent protection,
"N[C@@H](CNC(=O)N[C@@H](CS)C(=O)NCC(=O)O)C(=O)O [Ψ-GSH, γ-Gla-Cys-Gly-OH]",0.0498±0.0040,prevented glucose-induced intracellular MG accumulation,,fully protected the cells,4,0,five days,dose-dependent protection,No appreciable degradation
